≈ marks a conversion by molar mass, not a printed value. Where two headings read alike, the source gives them in different places.
Legend:
[1] = cited from earlier work
[2] = In vitro release of cosmetic active molecules from loaded microgels by a dialysis method; settings: 35% ethanol in dialysate medium, pH 6, 25° C.
Experimental: The study of active molecules release kinetics was carried out by a dialysis method in order to verify that no microgel diffusion occur in dialysate medium (that may also be called “release medium”), and in order to observe the cosmetic active molecule release profile against time.
For that, active molecules-loaded microgel particle dispersions (1 mg/mg microgel) were dialyzed against a dialysate medium. Diffusion of the cosmetic active molecule from the loaded-microgel dispersion medium to the dialysate medium is observed, until an equilibrium concentration is reached between both media.
Loaded-microgel particles comprising an active molecule in an amount of 1 mg/(mg unloaded microgel) were placed inside a dialysis tube and dialyzed in different buffered dialysate media (having different pH, having different temperature, containing a solvent and/or containing a surfactant). The buffered dialysate medium can contain ethanol, citric acid, sodium phosphate dibasic or/and polyoxyethylene monooleate sorbitan (also named Polysorbate 80, Tween® 80 or INCI […]). Active substance concentration in the dialysate medium was determined by UV-Vis.
The effect of temperature on the release kinetics of active molecules was investigated with the dialysate method maintaining pH of the dialysate medium constant at 4.5. The in vitro release was studied at two different temperatures: 25° C. […]

[3] = cited from earlier work; remark: listed apart in the source

## CC(C)=CCCC(C)CCO (stereo not shown) [Citronellol, 3,7-dimethyloct-6-en-1-ol]
[1]; at 25° C.
  Solubility in water: 200 µg/mL (≈ 1280 µM)
[1]
  Solubility in ethanol: very soluble in ethanol

## CCCCC(CC)COC(=O)c1ccccc1O (stereo not shown) [Escalol, 2-ethylhexyl salicylate]
[2]
  Incubation time in which 100% is released: ≤ 6 h
[1]
  Solubility in ethanol: soluble in ethanol
  Solubility in water: slighty soluble in water

## O=C(O)c1ccccc1O [Salicylic acid, 2-Hydroxybenzoic acid, reference compound]
[1]
  Solubility in ethanol: soluble in ethanol

## CCCCCCOC(=O)c1ccccc1C(=O)c1ccc(N(CC)CC)cc1O [Uvinul-A, hexyl 2-[4-(diethylamino)-2-hydroxybenzoyl]benzoate]
[1]
  Solubility in ethanol: soluble in ethanol
  Solubility in water: insoluble in water

## Hyaluronic acid
[3]
  pKa: 3
[1]
  Solubility in water: soluble in water
